Key:
[1] = system: COSMC gene; test: Bisulfite pyrosequencing of COSMC gene promoter methylation in HGFs; type: cell-based, human
Experimental: (§1) FIG. 9A. Effect of TNF-α and demethylation agents on the methylation level of COSMC gene in HGFs. The comparison of methylation changes is in the HGFs which were treated with or without TNF-α and demethylation agents. The UCSC genome browser illustrated the orientation and the first exon of COSMC (blue bar), GC percent (black scale bar), CpG islands (green bar) and the sequencing region of bisulfite pyrosequencing (COSMC_py02, black bar). […] FIG. 9B. HGFs were co-treated with purified TNF-α and different concentrations of 5-aza-dC (0, 1, 2 and 5 μM) for 24 hours and then immunofluorescent stained with rabbit anti-Tn antibody (in red) and DAPI (in blue). Magnification 630×; Scale bar, 50 μm.

[2] = system: human gingival fibroblasts (HGFs); test: Tn expression in HGFs, immunofluorescent staining with anti-Tn antibody; type: cell-based; conditions: for Tn levels in HGFs, responsiveness to purified cytokine: 0, 10, 30, 100 ng/ml for 24 hours; for Tn levels in HGFs: TNF-α 30 ng/ml
Experimental: FIG. 6A. Immunohistochemical analysis of Tn antigen in inflammatory tissues (top) and normal tissues (bottom). Tn staining in atherosclerotic aorta (left; labeled Aorta), bronchitis tissue (middle; labeled Bronchi), and periodontitis tissue (right; labeled Gingiva). Brown color represents Tn antigen expression. FIG. 6B. HGFs were treated with conditioned media from U937 cells stimulated with LPS (0, 10, 30 and 100 ng/ml; 24 hours) for 24 hours and then stained with purified rabbit anti-Tn antibody (in red) and DAPI (in blue). FIG. 6C. U937 cells were treated with LPS (0, 10, 30 and 100 ng/ml) for 24 hours, the secretions of TNF-α were analyzed by ELISA. Original magnifications (100×). Scale bar, 50 μm. FIG. 6D. U937 cells were treated with LPS (0, 10, 30 and 100 ng/ml) for 24 hours, the secretions of IL-6 were analyzed by ELISA. Original magnifications (100×). Scale bar, 50 μm. FIG. 6E. U937 cells were treated with LPS (0, 10, 30 and 100 ng/ml) for 24 hours, the secretions of IL-1β were analyzed by ELISA. Original magnifications (100×). Scale bar, 50 μm.
FIGS. 7A and 7B show pro-inflammatory cytokines, TNF-α and IL-6, up-regulates Tn levels in HGFs. FIG. 7A. The effect of pro-inflammatory cytokines on Tn expression in HGFs. HGFs were treated with purified TNF-α, IL-6 and IL-1β at the concentration of 0, 10, 30, and 100 ng/ml for 24 hours and then stained with purified rabbit anti-Tn antibody (in red) and DAPI (in blue). Original magnification (100×); scale bar, 50 μm. FIG. 7B. Time course analysis of Tn expressions in HGFs after TNF-α treatment. HGFs were treated with purified TNF-α at the concentration of 30 ng/ml for 4, 8, 12, 24 and 48 hours and then stained with purified rabbit anti-Tn antibody (in red) and DAPI (in blue) (Magnifications 630×; scale bar, 50 μm). The experiments were repeated at least three times.
as §1

[3] = system: NF-κB P65; test: Immunohistochemistry of NF-κB in lung; type: in vivo, mice; conditions: hyperoxia group immunized with carrier protein compared with control and Tn-treated hyperoxia groups
Experimental: After a routine deparaffinization step, heat-induced epitope retrieval was performed by immersing the slides in 0.01 mol/L sodium citrate buffer (pH 6.0). To block the endogenous peroxidase activity and nonspecific antibody binding, sections were first preincubated for 1 hour at room temperature in 0.1 mol/L PBS containing 10% normal goat serum and 0.3% H2O2 before incubating for 20 hours at 4° C. with the rabbit polyclonal anti-NF-κB P65 (1:50 dilution; Abcam Inc., Cambridge, Mass., USA) as primary antibody. The sections were then treated for 1 hour at room temperature with biotinylated goat anti-rabbit IgG (1:200, Vector, Calif., USA). This was followed by reaction with the reagents from an ABC kit (Avidin-Biotin Complex, Vector, Calif., USA) according to the manufacturer's recommendations, and the reaction products were visualized by diaminobenzidine substrate kit (Vector, Calif., USA). All immunostained sections were viewed and photographed by Olympus BX 43.

[4] = system: C57BL/6NCrlBltw mice; test: Serum anti-Tn antibody titers by ELISA after immunization; type: in vivo; conditions: mice immunized subcutaneously with adjuvant, versus background before immunization
Experimental: Five-week-old female C57BL/6NCrlBltw mice were subcutaneously immunized with Tn vaccine at a dose of 20 μg or carrier protein (10 μg of mFc(Cys42-Tn)Histag2) in the presence of adjuvant in 100 μl for four times at biweekly intervals and one additional immunization at one week later after the fourth immunization. Blood was withdrawn from facial vein for anti-Tn antibody titer measurement using enzyme-linked immunosorbent assay (ELISA) on days 0, 42, and 49. Four days after the last immunization, mice were exposed to room air (RA) or oxygen-enriched atmosphere (100% O2) for up to 96 hours. Oxygen exposures was carried out in a transparent 60×50×40-cm Plexiglas chamber into which oxygen was continuously delivered at 4 l/min and oxygen levels were monitored with a ProOx Model 110 monitor (NexBiOxy, Hsinchu, Taiwan) and humidity was checked daily and the value was 60-80%. We obtained four study groups as follows: carrier protein+RA (n=6), Tn vaccine+RA (n=6), carrier protein+O2 (n=6), and Tn vaccine+O2 (n=5). Mice were deeply anesthetized with an overdose of isoflurane after 96 hours O2 treatment. […] This washing procedure was repeated two more times for each animal, with the three washes being pooled, and the total volume recorded. […]
GST(Cys6-Tn) was coated on 96-well flat-bottomed plates (Falcon Labware, Lincoln Park, N.J., USA) at a concentration of 1.5 μg/ml. […] Absorbance was read at 410 nm.

[5] = system: COSMC; test: qPCR of COSMC mRNA in HGFs; type: cell-based, human; conditions: 100 ng/ml, 24 hours
Experimental: (§2) FIG. 8A. Effect of TNF-α and demethylation agents (5-aza-dC) on mRNA expression of COSMC and T-synthase in HGFs. qPCR was used to analyze COSMC and T-synthase mRNA expression in HGFs upon TNF-α and 5-aza-dC treatment. The mRNA expression of COSMC and T-synthase was normalized to GAPDH and statistically analyzed. (*: p<0.05 compared with TNF-α only) Calculations of relative gene expression (normalized to GAPDH reference gene) were performed according to the ΔΔCT method. Fidelity of the PCR reaction was determined by melting temperature analysis. FIG. 8B. Western blotting was used to analyze the protein levels of Cosmc and T-synthase upon 6 and 24 hours of TNF-α treatment. FIG. 8C. and FIG. 8D. HGFs were treated with purified TNF-α for 6 or 24 hours and then immunofluorescent stained with anti-Cosmc (in red) and anti-T-synthase antibodies (in green) and DAPI (in blue). Original magnification (100×); scale bar, 50 μm.

[6] = system: T-synthase; test: qPCR of T-synthase mRNA in HGFs; type: cell-based, human; conditions: 100 ng/ml, 24 hours
Experimental: as §2

Compound: Nc1ncn([C@H]2C[C@H](O)[C@@H](CO)O2)c(=O)n1 [5-aza-dC, reference compound]
- TNF-α-induced COSMC gene hypermethylation ([1]; HGFs treated with TNF-α and demethylation agent): can be suppressed
- TNF-α-induced Tn expression ([2]; HGFs co-treated with TNF-α and 0, 1, 2, 5 μM for 24 hours): can be suppressed

Compound: Fc fragment-7 repeats of Pro-Cys-Cys-Gly-Cys-Cys-Gly-Cys-Gly-Cys-N-succinimidyl-6-maleimidocaproate [carrier protein]
- NFκB immunoreactivity in lung [3]: more intense NFκB immunoreactivity
- serum anti-Tn antibody titers [4]: low serum Tn antibody titers
- serum anti-Tn antibody titers ([4]; listed as carrier polypeptide): background serum anti-Tn antibody levels

Compound: interleukin-1β [IL-1β]
- Tn levels in HGFs, responsiveness to purified cytokine [2]: not responsive

Compound: interleukine-6 [IL-6]
- Tn levels in HGFs, responsiveness to purified cytokine [2]: moderately responsive

Compound: tumor necrosis factor-α [TNF-α]
- methylation of four CpG sites in the promoter of the COSMC gene ([1]; TNF-α treatment of HGFs): significantly hypermethylated
- COSMC mRNA in HGFs [5]: significantly down-regulated
- T-synthase mRNA level in HGFs [6]: did not significantly alter
- Tn levels in HGFs, responsiveness to purified cytokine [2]: most responsive
- Tn levels in HGFs ([2]; 8 to 12 hrs): Gradual increase
- Tn levels in HGFs ([2]; 4 hrs): essentially unchanged
- Tn levels in HGFs ([2]; after 24 hours): gradually decreased
- Tn levels in HGFs ([2]; after 48 hours): markedly decreased

From patent US10485868B2, “Tn vaccine composition and method for alleviating inflammation” (TAIPEI MEDICAL UNIVERSITY, priority 2017, dated 2019)
